Measurements: the supplement of paper PMC10307832

What was measured:
Experiment in all cases: relative viability (nuclei count vs DMSO), 5 days (fraction); higher = more cells survive
AZ3146 + Pemetrexed = compound: CN1CCC(CC1)OC2=CC(=C(C=C2)NC3=NC=C4C(=N3)N(C(=O)N4C)C5CCCC5)OC [AZ3146] + Nc1nc2[nH]cc(CCc3ccc(C(=O)N[C@@H](CCC(=O)O)C(=O)O)cc3)c2c(=O)[nH]1 [Pemetrexed] (partner 0.2 µM)
How it was run: (§1)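 Cells from lung cancer lines were seeded into 1536-well plates and, one day later, dosed by pin tool. Treatments were either a single drug or a fixed dose of an anchor drug with five library-drug doses (not always all listed) in √10 steps. After 5 days, nuclei were stained in a one-step fixation (final 0.05% Triton X-100, 1% formaldehyde, 1 ug/ml Hoechst) and counted on 4× images, and relative viability is the treated-to-vehicle nuclei ratio, as the median of duplicate plates.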

GSK-J4 + Palbociclib = compound: CCOC(=O)CCNc1cc(N2CCc3ccccc3CC2)nc(-c2ccccn2)n1 [GSK-J4] + CC(=O)c1c(C)c2cnc(Nc3ccc(N4CCNCC4)cn3)nc2n(C2CCCC2)c1=O [Palbociclib] (partner 0.5 µM)
How it was run: as §1

GSK-J4 + Alpelisib = compound: CCOC(=O)CCNc1cc(N2CCc3ccccc3CC2)nc(-c2ccccn2)n1 [GSK-J4] + Cc1nc(NC(=O)N2CCC[C@H]2C(N)=O)sc1-c1ccnc(C(C)(C)C(F)(F)F)c1 [Alpelisib] (partner 2 µM)
How it was run: as §1

AZ3146 + Pictilisib = compound: CN1CCC(CC1)OC2=CC(=C(C=C2)NC3=NC=C4C(=N3)N(C(=O)N4C)C5CCCC5)OC [AZ3146] + CS(=O)(=O)N1CCN(Cc2cc3nc(-c4cccc5[nH]ncc45)nc(N4CCOCC4)c3s2)CC1 [Pictilisib] (partner 1 µM)
How it was run: as §1

| Cell Line | relative viability (AZ3146 + Pemetrexed; first compound 0.08 µM) | relative viability (AZ3146 + Pemetrexed; first compound 0.253 µM) | relative viability (AZ3146 + Pemetrexed; first compound 0.8 µM) | relative viability (AZ3146 + Pemetrexed; first compound 2.53 µM) | relative viability (AZ3146 + Pemetrexed; first compound 8 µM) | relative viability (GSK-J4 + Palbociclib; first compound 0.5 µM) | relative viability (GSK-J4 + Palbociclib; first compound 1.581 µM) | relative viability (GSK-J4 + Palbociclib; first compound 15.81 µM) | relative viability (GSK-J4 + Palbociclib; first compound 50 µM) | relative viability (GSK-J4 + Alpelisib; first compound 0.5 µM) | relative viability (GSK-J4 + Alpelisib; first compound 1.581 µM) | relative viability (GSK-J4 + Alpelisib; first compound 15.81 µM) | relative viability (GSK-J4 + Alpelisib; first compound 50 µM) | relative viability (AZ3146 + Pictilisib; first compound 0.08 µM) | relative viability (AZ3146 + Pictilisib; first compound 0.253 µM) | relative viability (AZ3146 + Pictilisib; first compound 0.8 µM) | relative viability (AZ3146 + Pictilisib; first compound 2.53 µM) | relative viability (AZ3146 + Pictilisib; first compound 8 µM) | relative viability (GSK-J4 + Alpelisib; first compound 5 µM) | relative viability (GSK-J4 + Palbociclib; first compound 5 µM) |
| --- | --- | --- | --- | --- | --- | --- | --- | --- | --- | --- | --- | --- | --- | --- | --- | --- | --- | --- | --- | --- |
| HCC-366 | 0.166 | 0.205 | 0.198 | 0.157 | 0.148 | 0.357 | 0.322 | 0.357 | 0.354 | 0.391 | 0.25 | 0.305 | 0.365 | 0.233 | 0.133 | 0.138 | 0.146 | 0.191 | – | – |
| Calu-6 | – | – | – | – | – | – | – | – | – | 0.914 | 0.815 | 1.05 | 0.915 | 0.871 | 0.984 | 0.865 | 0.859 | 0.515 | 0.834 | – |
| ABC-1 | – | – | – | – | – | 0.599 | 0.589 | 0.691 | 0.432 | 1.2 | 0.898 | 0.971 | 0.735 | 0.566 | 0.866 | 0.687 | 0.878 | 0.723 | 1.04 | 0.605 |
| NCI-H727 | – | – | – | – | – | 0.648 | 0.683 | 0.593 | 0.528 | 0.549 | – | 0.621 | 0.264 | 0.324 | 0.431 | 0.328 | 0.605 | 0.316 | 0.894 | 0.696 |
| NCI-H1563 | 0.673 | 0.645 | 0.717 | 0.797 | 0.825 | – | – | – | – | 0.885 | 0.85 | 0.891 | 1.02 | 0.636 | 0.641 | 0.729 | 0.685 | 0.604 | 0.872 | – |
| EBC-1 | – | – | – | – | – | – | – | – | – | 0.742 | 0.72 | 0.824 | 0.423 | 0.366 | 0.412 | 0.351 | 0.388 | 0.244 | 0.9 | – |
| NCI-H1650 | 0.323 | 0.324 | 0.366 | 0.376 | 0.386 | 0.34 | 0.287 | 0.371 | 0.283 | – | – | – | – | 0.52 | 0.671 | 0.53 | 0.535 | 0.493 | – | 0.353 |
| NCI-H596 | 0.478 | 0.449 | 0.574 | 0.486 | 0.556 | – | – | – | – | 0.479 | 0.503 | 0.457 | 0.477 | 0.361 | 0.374 | 0.413 | 0.302 | 0.41 | 0.525 | – |
| NCI-H1648 | – | – | 1.02 | 0.801 | 0.62 | 0.293 | – | – | 0.3 | – | – | – | – | – | – | – | – | – | – | 0.358 |
| NCI-H1703 | – | – | – | – | – | – | – | – | – | 0.286 | 0.461 | 0.372 | 0.363 | 0.254 | 0.258 | 0.231 | 0.228 | 0.234 | 0.289 | – |
| A549 | – | – | – | – | – | – | – | – | – | 0.765 | 0.578 | 0.823 | 0.691 | 0.475 | 0.503 | 0.483 | 0.404 | 0.139 | 0.669 | – |
| NCI-H522 | 0.917 | 0.905 | 0.898 | 1.09 | 0.968 | 1.22 | 0.953 | 0.976 | 0.622 | – | – | – | – | – | – | – | – | – | – | – |
| SW 900 | 0.459 | – | 0.445 | 0.492 | 0.429 | 0.575 | 0.496 | 0.517 | 0.436 | – | – | – | – | – | – | – | – | – | – | 0.546 |
